# What was measured:
# human adenosine A2AR = target: T1, human adenosine A2AR (Homo sapiens, UniProt P29274); test: Radioligand binding at human adenosine A2A receptor vs. [3H]MSX-2; settings: for potency as A2AR ligand compared with A1R: from Ki values of Table 1; for Ki: human recombinant receptor in CHO cells, read-out: A2AR vs. [³H]MSX-2 Ki ± SEM
# T1 construct: expressed in transfected cells; host or cells: CHO cells
# HepG2 cells = test: Hepatotoxicity, MTS cell viability; assay type: cell-based, human; settings: 0.098 μM to 100 μM, 48 h
# Experimental: Drug safety is a critical step in the process of drug development. […] In our studies, neurotoxicity and hepatotoxicity were evaluated in SH-SY5Y and HepG2 cells, respectively. The compounds were tested at 11 concentrations from 0.098 μM to 100 μM (see Figure 5). Cell viability was assessed after incubation for 24 h with the SH-SY5Y line and for 48 h with the HepG2 line.
# To evaluate neurotoxicity and hepatotoxicity, the human neuroblastoma cell line SH-SY5Y (ATCC® no. CRL-2266™) and hepatoma cell line HepG2 (ATCC® no. HB-8065™) were used, respectively. The cells (SH-SY5Y: 5 × 10^3 cells/100μL/well and HepG2: 7 × 10^3 cells/100 μL/well) were seeded in transparent 96-well plates (Nunc) in DMEM supplemented with 10% FBS and cultured overnight. The next day, the medium was changed to medium containing dimethylsulfoxide (DMSO < 0.1%, vehicle control) or an increasing concentration of compounds MZ-1483 (19), MZ-1490 (22) and MZ-1495 (24) ([…]–100 × 10^−6 M). To perform dose-response analysis, two-fold serial dilutions (11 points) were prepared. Treatment with compounds was performed for 48 h. After the incubation time, the cell viability was examined using an MTS-based [3-(4,5-dimethylthiazol-2-yl)-5-(3-carboxymethoxyphenyl)-2-(4-sulfophenyl)-2 H tetrazolium] CellTiter96® AQueous One Solution Cell Proliferation Assay (Promega, Madison, WI, USA) following the manufacturer’s protocol. Briefly, 20 μL of MTS solution was pipetted into each well containing 100 μL of culture or culture medium (negative control) and incubated at 37 °C for 1 h. After incubation time, formazan product turnover absorbance was measured at 490 nm using the microplate reader (Tecan Spark®, Tecan Group Ltd., Maennedorf, Switzerland). A reference wavelength of 630 nm was used.
# human adenosine A3R = target: T2, human adenosine A3R (Homo sapiens, UniProt P0DMS8); test: Radioligand binding at human adenosine A3 receptor vs. [3H]PSB-11; settings: for inhibition at 1 µM: CHO cells, read-out: A3R vs. [H³]PSB-11 % Inhibition ± SEM at 1 µM; for Ki: human recombinant receptor in CHO cells, read-out: A3R vs. [H³]PSB-11 Ki ± SEM
# T2 construct: expressed in transfected cells; host or cells: CHO cells
# T2 sequence (P0DMS8 1-318): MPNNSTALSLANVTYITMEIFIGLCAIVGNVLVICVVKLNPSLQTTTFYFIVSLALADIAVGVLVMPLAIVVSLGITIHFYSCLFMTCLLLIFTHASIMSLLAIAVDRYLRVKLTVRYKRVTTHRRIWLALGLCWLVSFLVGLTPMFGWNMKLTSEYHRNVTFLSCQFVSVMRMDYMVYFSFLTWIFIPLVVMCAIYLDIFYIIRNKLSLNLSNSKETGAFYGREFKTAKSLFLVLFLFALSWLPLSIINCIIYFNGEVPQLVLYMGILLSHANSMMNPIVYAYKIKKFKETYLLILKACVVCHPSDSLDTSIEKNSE
# human adenosine A1R = target: T3, human adenosine A1R (Homo sapiens, UniProt P30542); test: Radioligand binding at human adenosine A1 receptor vs. [3H]CCPA; settings: human recombinant receptor in CHO cells; read-out: A1R vs. [³H]CCPA Ki ± SEM
# T3 construct: expressed in transfected cells; host or cells: CHO cells
# T3 sequence (P30542 1-326): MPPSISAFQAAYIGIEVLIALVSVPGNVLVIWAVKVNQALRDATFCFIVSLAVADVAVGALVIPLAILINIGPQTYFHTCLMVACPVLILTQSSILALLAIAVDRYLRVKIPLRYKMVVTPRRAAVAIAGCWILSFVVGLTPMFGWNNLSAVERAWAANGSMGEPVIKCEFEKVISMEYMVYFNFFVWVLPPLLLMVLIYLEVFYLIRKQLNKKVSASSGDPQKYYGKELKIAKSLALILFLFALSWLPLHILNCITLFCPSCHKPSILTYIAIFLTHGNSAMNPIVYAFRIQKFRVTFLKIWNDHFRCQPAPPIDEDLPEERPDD
# [1] = system: BV-2 cells treated with LPS; test: Griess assay, NO production; settings: BV-2, LPS 1 μg/mL 24 h; at the lowest concentrations (19: 100 nM; 22: 100 and 200 nM)
# Experimental: To assess the ability of compounds to inhibit NO production, the Griess assay was applied. This is a colorimetric assay to measure the levels of nitrite (NO2^−), which is one of the primary and stable metabolites of NO. The anti-inflammatory activity of compounds was examined in BV-2 cells treated with LPS as previously described [19]. Briefly, BV-2 cells were first pre-treated with increasing concentrations of tested compounds for 1 h, followed by LPS (1 μg/mL) stimulation for 24 h. Together with the Griess assay, the 3-(4,5-dimethylthiazol-2-yl)-5-(3-carboxymethoxyphenyl)-2-(4-sulfophenyl)-2H-tetrazolium (MTS) assay was performed to ensure that the decrease in NO level was not an effect of toxicity.
# Griess reagent (Sigma-Aldrich, Saint Louis, MO, USA, G4410) was freshly prepared by dissolving 1 g in ultrapure water and mixing by inversion for about 4 min under protection from light. […] The plate was incubated for 15 min at room temperature and the absorbance was read at 540 nm using the EnSpire microplate reader (PerkinElmer, Waltham, MA, USA). Data were analyzed by direct comparison based on the average absorbance of LPS treatment, compound treatment or co-treatment with LPS, performed by normalizing treated cells (compound alone or co-treatment with LPS) to LPS-treated cells set at 100%.
# CYP3A4 = target: T4, CYP3A4 (Homo sapiens, UniProt P08684); test: Drug-drug interactions, CYP3A4 P450-Glo; assay type: in vitro ADME; settings: 10 µM
# T4 construct: purchased Promega (Madison, WI, USA)
# T4 sequence (P08684 whole entry): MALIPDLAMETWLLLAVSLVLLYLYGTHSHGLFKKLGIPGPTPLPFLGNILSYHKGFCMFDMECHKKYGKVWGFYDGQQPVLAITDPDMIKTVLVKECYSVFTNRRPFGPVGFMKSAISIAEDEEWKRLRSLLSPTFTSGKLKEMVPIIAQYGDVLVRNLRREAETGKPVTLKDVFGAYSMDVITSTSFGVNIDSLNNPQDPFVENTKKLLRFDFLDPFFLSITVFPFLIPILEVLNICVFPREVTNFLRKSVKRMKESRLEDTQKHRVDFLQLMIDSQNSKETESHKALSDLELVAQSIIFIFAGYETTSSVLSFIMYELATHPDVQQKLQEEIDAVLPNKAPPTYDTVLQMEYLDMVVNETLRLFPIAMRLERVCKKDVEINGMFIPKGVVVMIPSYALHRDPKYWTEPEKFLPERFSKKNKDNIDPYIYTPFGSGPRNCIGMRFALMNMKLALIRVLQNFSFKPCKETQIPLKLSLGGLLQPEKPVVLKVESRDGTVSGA
# Experimental: (§1) To predict potential drug-drug interactions (DDI) effects on three of the most relevant cytochrome P450 (CYP), isoforms CYP3A4, CYP2D6 and CYP2C9 were investigated at a concentration of 10 µM. The results were compared with the effects of 1 µM of the selective inhibitors ketoconazole (CYP3A4), quinidine (CYP2D6) and sulfaphenazole (CYP2C9).
# (§2) The influence of the tested compounds on recombinant human cytochromes was determined with the use of CYP3A4, CYP2D6 and CYP2C9 P450-Glo™ kits and protocols provided by Promega (Madison, WI, USA). Compounds were tested at a concentration of 10 μM. Reference inhibitors: Ketoconazole (CYP3A4), quinidine (CYP2D6) and sulfaphenazole (CYP2C9) were tested at 1 μM. The luminescent signals were measured using a microplate reader EnSpire PerkinElmer (Waltham, MA, USA).
# CYP2D6 = target: T5, CYP2D6 (Homo sapiens, UniProt P10635); test: Drug-drug interactions, CYP2D6 P450-Glo; assay type: in vitro ADME; settings: 10 µM
# T5 construct: purchased Promega (Madison, WI, USA)
# T5 sequence (P10635 whole entry): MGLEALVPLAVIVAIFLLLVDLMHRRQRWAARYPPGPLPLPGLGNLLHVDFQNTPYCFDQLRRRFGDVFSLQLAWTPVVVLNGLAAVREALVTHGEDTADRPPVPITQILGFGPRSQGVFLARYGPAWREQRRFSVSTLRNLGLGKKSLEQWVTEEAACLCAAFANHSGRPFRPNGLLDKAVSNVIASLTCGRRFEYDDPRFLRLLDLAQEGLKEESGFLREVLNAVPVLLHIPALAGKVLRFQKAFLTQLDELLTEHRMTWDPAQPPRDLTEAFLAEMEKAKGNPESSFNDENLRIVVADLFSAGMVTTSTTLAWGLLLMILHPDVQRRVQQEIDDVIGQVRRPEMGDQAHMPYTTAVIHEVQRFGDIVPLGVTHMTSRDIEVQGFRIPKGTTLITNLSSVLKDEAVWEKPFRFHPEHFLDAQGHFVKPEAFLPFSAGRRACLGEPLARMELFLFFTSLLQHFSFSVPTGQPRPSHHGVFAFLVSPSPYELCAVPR
# Experimental: as §1, §2
# T1 sequence (P29274 whole entry): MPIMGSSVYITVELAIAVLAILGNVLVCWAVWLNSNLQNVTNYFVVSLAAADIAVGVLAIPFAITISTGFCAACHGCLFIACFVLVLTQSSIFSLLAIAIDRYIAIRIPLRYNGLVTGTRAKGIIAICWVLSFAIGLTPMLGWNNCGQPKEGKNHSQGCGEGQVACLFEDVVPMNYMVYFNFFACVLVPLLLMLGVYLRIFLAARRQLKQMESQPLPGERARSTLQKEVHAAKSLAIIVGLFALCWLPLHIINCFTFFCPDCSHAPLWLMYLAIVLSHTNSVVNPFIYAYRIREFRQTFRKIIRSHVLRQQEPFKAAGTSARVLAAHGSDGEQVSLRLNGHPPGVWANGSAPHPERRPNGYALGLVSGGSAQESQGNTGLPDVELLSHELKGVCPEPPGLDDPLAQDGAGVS
SMILES,potency as A2AR ligand compared with A1R (human adenosine A2AR),Ki (human adenosine A2AR) [nM],"hepatotoxicity, cell viability (in words) (HepG2 cells)",melting point [°C],inhibition at 1 µM (human adenosine A3R) [%],Ki (human adenosine A3R) [nM],Ki (human adenosine A1R) [nM],anti-inflammatory activity in Griess assay (in words) [1],"CYP3A4 activity, % of the control activity (CYP3A4)",effect on CYP2D6 activity (in words) (CYP2D6)
"C#CCn1c(=O)c2c(nc(NCc3ccccc3Cl)n2C)n(C)c1=O [compound 19, 8-((2-Chlorobenzyl)amino)-3,7-dimethyl-1-(prop-2-yn-1-yl)-3,7-dihydro-1H-purine-2,6-dione]",four times more potent as A2AR ligand,96 ± 31,high safety profile,223 to 225,9,> 1000,407 ± 75,moderate anti-inflammatory activity,~ 20%,–
"C#CCn1c(=O)c2c(nc(NCc3c(F)cccc3Cl)n2C)n(C)c1=O [compound 22, 8-((2-Chloro-6-fluorobenzyl)amino)-3,7-dimethyl-1-(prop-2-yn-1-yl)-3,7-dihydro-1H-purine-2,6-dione]",twice more potent as A2AR ligand,62 ± 5,high safety profile,276 to 278,21,> 1000,130 ± 34,moderate anti-inflammatory activity,around 75%,–
"C#CCn1c(=O)c2c(nc(NCc3cccc(Br)c3)n2C)n(C)c1=O [compound 24, 8-((3-Bromobenzyl)amino)-3,7-dimethyl-1-(prop-2-yn-1-yl)-3,7-dihydro-1H-purine-2,6-dione]",equal potency for both receptors,77 ± 24,high safety profile,248 to 250,7,> 1000,72 ± 8,–,~ 20%,"slight, statistically significant inhibition"

# Source: paper PMC10531311, “Anti-Inflammatory Activities of 8-Benzylaminoxanthines Showing High Adenosine A2A and Dual A1/A2A Receptor Affinity” (International Journal of Molecular Sciences, 2023)
